From patent publication US20230295157A1, “3-(1H-IMIDAZOL-2-YL)-2,3,8,8A-TETRAHYDROINDOLIZIN-5(1H)-ONE DERIVATIVES USEFUL AS FACTOR XIA INHIBITORS” (JANSSEN PHARMACEUTICA NV, priority 2020, published 2023)
Like-named read-outs stand apart in the source and are kept apart here.

What was measured:
[1] = target: Factor XIa (Homo sapiens (Human), UniProt P03951); assay: Factor XIa inhibition assay (FLINT) utilizing a fluorophore-quencher pair peptide substrate; assay type: biochemical; details: 30 min preincubation, kinetic reads over 30 min, read-out: FXIa Kin Inh IC50
Chain of Factor XIa (P03951 388-625): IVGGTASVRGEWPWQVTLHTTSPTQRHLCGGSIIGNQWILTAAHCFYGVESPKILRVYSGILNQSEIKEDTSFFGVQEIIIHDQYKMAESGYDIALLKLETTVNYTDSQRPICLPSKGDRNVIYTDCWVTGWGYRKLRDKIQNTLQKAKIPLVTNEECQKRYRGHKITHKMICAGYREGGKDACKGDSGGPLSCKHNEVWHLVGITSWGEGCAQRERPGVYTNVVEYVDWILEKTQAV
Chain of Factor XIa (P03951 19-387 partner): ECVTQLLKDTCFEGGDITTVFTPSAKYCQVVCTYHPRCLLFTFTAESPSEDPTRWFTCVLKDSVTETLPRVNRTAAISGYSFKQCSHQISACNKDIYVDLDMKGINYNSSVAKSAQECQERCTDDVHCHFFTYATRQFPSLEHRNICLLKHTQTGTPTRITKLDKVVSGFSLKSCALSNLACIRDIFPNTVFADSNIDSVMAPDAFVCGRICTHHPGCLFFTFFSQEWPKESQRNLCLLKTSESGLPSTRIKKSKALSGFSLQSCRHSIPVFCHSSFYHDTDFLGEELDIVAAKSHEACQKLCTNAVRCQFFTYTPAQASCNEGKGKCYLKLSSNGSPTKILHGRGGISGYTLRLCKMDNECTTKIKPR
Excerpt: Biological Example 1: Factor XIa Inhibition Assay Utilizing a Fluorophore-Quencher Pair Peptide Substrate
A fluorescence intensity (FLINT) based assay was used to monitor inhibition of Factor XIa. The peptide substrate, 5Fam-[…]-K5Tamra (purchased from New England Peptide) was chosen based on the FXI sequence. Conversion of zymogen […]. The custom peptide used in this assay was based on the Arg146 cleavage site of FXI. The peptide substrate was designed with a fluorophore-quencher pair, where the fluorescence is quenched until FXIa cleaves the 8-mer peptide after the Arg residue.
The Factor XIa FLINT assay was used with the following 5Fam-[…]-K5Tamra assay buffer: 50 mM Tris, pH 7.5, 100 mM NaCl, 5 mM CaCl2), 0.1 mg/mL BSA, 0.03% CHAPS. Assay buffer was prepared by mixing all ingredients fresh. 5Fam-[…]-K5Tamra peptide substrate was first prepared at 10 mM in 100% DMSO, then diluted to 3 mM in 100% DMSO. Assay buffer was then added directly to the 3 mM stock of substrate to prepare the 30 μM 2× working concentration (15 μM final concentration). The 2×Factor XIa stock solution was prepared by diluting 6.562 μM stock in 1×assay buffer for a 200 μM working stock solution (100 μM final concentration).
Test compound(s) were run in an 11-point, 3-fold serial dilution with a final top compound concentration of 100 nM. Final DMSO in assay was 2%. FXIa was preincubated with compound for 30-minutes and then substrate was added to initiate the reaction. The assay was run with kinetic (KIN) reads at 5 min intervals over 30 minutes. The time course was linear using 100 μM FXIa greater than 30 minutes. More specifically, the assay was run as follows: • 100 nL of 0.01 mM test compound was dispensed into black 384 well non-binding Greiner BioOne 784900 plate for 0.1 μM final concentration; • 5 μL of 1×assay buffer was dispensed to column 24 (low control) and 5 μL 2×Factor XIa solution was dispensed to columns 1-23 (column 23 high control); • the plate was centrifuged with a “cover” plate at 500 rpm for 1 min • the plate was pre-incubated for 30 minutes at room temperature with plate covered; • 5 μL of 2×5Fam-[…]-K5Tamra peptide substrate was dispensed into the entire plate, columns 1-24; • the plate was centrifuged with a “cover” plate at 500 rpm for 1 min; • the plate was read monitoring fluorescence intensity on the BMG PHERAStar at room temperature, using fluorescence module 485 nm/520 nm.
(§1) Percent inhibition (IC50) curves were generated per compound tested, and data was analyzed using a 4-parameter logistic fit using GeneData Screener. The relative fluorescence unit (RFU) values were normalized to percent inhibition using the following equation:
% inhibition=((HC-LC)−(compound−LC)/(HC-LC))*100
where LC—low control=mean signal of no Factor XIa or 100% inhibition of Factor XIa; HC—high control=mean signal of Factor XIa+5Fam-[…]-K5Tamra peptide substrate with DMSO only.
(§2) An 11-point dose response curve for the test compound(s) was generated using GENDATA to determine IC50 value based on the following equation:
Y=Bottom+(Top-Bottom)/(1+10^((logIC50-X)*HillSlope))
where Y is the % inhibition in the presence of X inhibitor concentration, Top=high control=mean signal of Factor XIa+5Fam-[…] K5Tamra peptide substrate with DMSO only; Bottom=low control−mean signal of no Factor XIa or 100% inhibition of Factor XIa; HillSlope—Hill coefficient; and IC50=concentration of compound with 50% inhibition in relation to top/high control.
Representative compounds of the present invention were tested according to the procedure described in Biological Example 1 and Biological Example 2 above, with results as listed in Table 3, below.

[2] = target: human plasma kallikrein (Homo sapiens (Human), UniProt P03952); assay: Kallikrein inhibition assay (FLINT) utilizing a quenched AMC peptide substrate; assay type: biochemical; details: 30 min preincubation, kinetic reads over 30 min, Z-Gly-Pro-Arg-AMC substrate 50 μM; read-out: Kallikrein Kin Inh IC50
Chain of human plasma kallikrein (P03952 391-638): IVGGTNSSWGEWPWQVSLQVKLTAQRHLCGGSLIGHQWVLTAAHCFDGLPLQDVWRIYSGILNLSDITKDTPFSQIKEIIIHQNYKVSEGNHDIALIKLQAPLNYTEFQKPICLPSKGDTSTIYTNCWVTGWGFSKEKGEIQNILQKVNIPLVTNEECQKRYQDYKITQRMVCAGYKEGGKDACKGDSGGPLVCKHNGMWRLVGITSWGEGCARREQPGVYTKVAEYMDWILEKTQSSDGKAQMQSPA
Chain of human plasma kallikrein (P03952 20-390 partner): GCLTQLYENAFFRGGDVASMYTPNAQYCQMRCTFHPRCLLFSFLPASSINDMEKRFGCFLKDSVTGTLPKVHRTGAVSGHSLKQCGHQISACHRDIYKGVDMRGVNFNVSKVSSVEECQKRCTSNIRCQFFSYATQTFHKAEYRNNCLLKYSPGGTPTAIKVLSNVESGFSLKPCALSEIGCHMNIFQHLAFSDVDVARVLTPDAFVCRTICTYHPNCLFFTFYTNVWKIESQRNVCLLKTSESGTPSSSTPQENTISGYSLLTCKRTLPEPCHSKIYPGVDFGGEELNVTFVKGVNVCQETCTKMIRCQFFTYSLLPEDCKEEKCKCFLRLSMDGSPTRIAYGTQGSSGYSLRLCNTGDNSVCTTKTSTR
Procedure: Biological Example 2: Kallikrein Inhibition Assay Utilizing a Quenched AMC Peptide Substrate A fluorescence intensity (FLINT) based assay was used to monitor inhibition of human plasma kallikrein.
The Kallikrein FLINT assay was used with the following Z-Gly-Pro-Arg-AMC assay buffer: 50 mM Tris, pH 7.5, 100 mM NaCl, 5 mM CaCl2), 0.1 mg/mL BSA, 0.03% CHAPS. Assay buffer was prepared by mixing all ingredients fresh. 2×Z-Gly-Pro-Arg-AMC peptide substrate was prepared by diluting 10 mM stock into 1×assay buffer for a 100 μM working concentration (50 μM final concentration). The 2×kallikrein stock solution was prepared by diluting 14.76 μM stock in 1×assay buffer for a 4 nM working stock solution (2 nM final concentration).
Test compound(s) were run in an 11-point, 3-fold serial dilution with a final top compound concentration of 1 μM. Final DMSO in assay was 2%. Plasma kallikrein was pre-incubated for 30-minute with compound and then 50 μM substrate was added to initiate the reaction. The assay was run with kinetic (KIN) reads at 5 min intervals over 30 minutes. […] More specifically, the assay was run as follows: • 100 nL of 0.1 mM test compound was dispensed into black 384-well non-binding Greiner BioOne 784900 plate for 1 μM final concentration; • 5 μL of 1×assay buffer was dispensed to columns 24 (low control) and 5 μL 2×human kallikrein enzyme solution was dispensed to columns 1-23 (column 23 high control); • the plate was centrifuged with a “cover” plate at 500 rpm for 1 min • the plate was pre-incubated for 30 minutes at room temperature with plate covered; • 5 μL of 2×Z-Gly-Pro-Arg-AMC peptide substrate was dispensed into the entire plate, columns 1-24; • the plate was centrifuged with a “cover” plate at 500 rpm for 1 min; • the plate was read monitoring fluorescence intensity on the BMG PHERAStar at room temperature, using fluorescence module 340 nm/440 nm.
as §1
% inhibition=((HC-LC)−(compound-LC)\(HC-LC))*100 where LC—low control=mean signal of human kallikrein enzyme or 100% inhibition of human kallikrein enzyme; HC—high control=mean signal of Factor XIa+Z-Gly-Pro-Arg-AMC peptide substrate with DMSO only.
as §2
Y=Bottom+(Top-Bottom)/(1+10^((logIC50−X)*HillSlope)) where Y is the % inhibition in the presence of X inhibitor concentration, Top=high control=mean signal of human kallikrein enzyme+Z-Gly-Pro-Arg-AMC peptide substrate with DMSO only; Bottom=low control−mean signal of no human kallikrein enzyme or 100% inhibition of human kallikrein enzyme; HillSlope—Hill coefficient; and IC50=concentration of compound with 50% inhibition in relation to top/high control.

[3] = 5Fam-KLTRAETV-K5Tamra substrate 15 μM
[4] = 5Fam-[…]-K5Tamra substrate 15 μM

Structure (SMILES) | IC50 [1, 3] [nM] | IC50 [2] [nM] | IC50 [1, 4] [nM]
O=C1C=C(c2c(-n3cnnn3)ccc(Cl)c2F)C[C@H]2CC[C@@H](c3ncc(-c4ccnc(C[C@H](O)C(F)(F)F)c4F)[nH]3)N12 (single isomer, unassigned) [Example 143, (3S,8aR)-7-(3-chloro-2-fluoro-6-(1H-tetrazol-1-yl)phenyl)-3-(5-(3-fluoro-2-((*S)-3,3,3-trifluoro-2-hydroxypropyl)pyridin-4-yl)-1H-imidazol-2-yl)-2,3,8,8a-tetrahydroindolizin-5(1H)-one] | 2.4 | 33 | 
NC(=O)c1ccc(-c2c[nH]c([C@@H]3CC[C@H]4CC(c5c(-n6cnnn6)ccc(Cl)c5F)=CC(=O)N43)n2)cc1F [Example 198, 4-(2-((3S,8aS)-7-(3-chloro-2-fluoro-6-(1H-tetrazol-1-yl)phenyl)-5-oxo-1,2,3,5,8,8a-hexahydroindolizin-3-yl)-1H-imidazol-4-yl)-2-fluorobenzamide] |  | 14.3 | 30.5
O=C1CCCN1c1nccc(-c2cnc([C@@H]3CC[C@@H]4CC(c5c(-n6cnnn6)ccc(Cl)c5F)=CC(=O)N43)[nH]2)c1F [Example 106, (3S,8aR)-7-(3-chloro-2-fluoro-6-(1H-tetrazol-1-yl)phenyl)-3-(5-(3-fluoro-2-(2-oxopyrrolidin-1-yl)pyridin-4-yl)-1H-imidazol-2-yl)-2,3,8,8a-tetrahydroindolizin-5(1H)-one] | 11 | 27 | 
NC(=O)c1ccc(-c2nc([C@@H]3CC[C@H]4CC(c5c(-n6cc(C(F)(F)F)nn6)ccc(Cl)c5F)=CC(=O)N43)[nH]c2Cl)s1 [Example 202, 5-(5-Chloro-2-((3S,8aS)-7-(3-chloro-2-fluoro-6-(4-(trifluoromethyl)-1H-1,2,3-triazol-1-yl)phenyl)-5-oxo-1,2,3,5,8,8a-hexahydroindolizin-3-yl)-1H-imidazol-4-yl)thiophene-2-carboxamide] | 0.6 | 1.5 | 
O=C1C=C(c2c(-n3cnnn3)ccc(Cl)c2F)C[C@H]2CC[C@@H](c3ncc(-c4ccnc(C[C@@H](O)C(F)(F)F)c4F)[nH]3)N12 (single isomer, unassigned) [Example 144, (3S,8aR)-7-(3-chloro-2-fluoro-6-(1H-tetrazol-1-yl)phenyl)-3-(5-(3-fluoro-2-((*R)-3,3,3-trifluoro-2-hydroxypropyl)pyridin-4-yl)-1H-imidazol-2-yl)-2,3,8,8a-tetrahydroindolizin-5(1H)-one] | 3.1 | 43.5 | 
[2H]c1cc(N)nc(F)c1-c1[nH]c([C@@H]2CC[C@@H]3CC(c4c(-n5cnnn5)ccc(Cl)c4F)=CC(=O)N32)nc1[2H] [Example 148, (3S,8aR)-3-[5-(6-amino-4-deuterio-2-fluoro-3-pyridyl)-4-deuterio-1H-imidazol-2-yl]-7-[3-chloro-2-fluoro-6-(tetrazol-1-yl)phenyl]-2,3,8,8a-tetrahydro-1H-indolizin-5-one] | 0.6 | 8.6 | 

Next, values leading:

IC50 [1, 3] [nM] | IC50 [2] [nM] | IC50 [1, 4] [nM] | Structure (SMILES)
5 | 25.5 |  | COC(=O)Nc1ccc(-c2cnc([C@@H]3CC[C@@H]4CC(c5c(-n6cnnn6)ccc(Cl)c5F)=CC(=O)N43)[nH]2)nc1 [Example 316, Methyl (6-(2-((3S,8aR)-7-(3-chloro-2-fluoro-6-(1H-tetrazol-1-yl)phenyl)-5-oxo-1,2,3,5,8,8a-hexahydroindolizin-3-yl)-1H-imidazol-5-yl)pyridin-3-yl)carbamate]
12.9 | 17.5 |  | O=C1C=C(c2c(-n3cnnn3)ccc(Cl)c2F)C[C@@H]2CC[C@@H](c3ncc(-c4ccnc(C(F)(F)F)c4)[nH]3)N12 [Example 353, (3S,8aS)-7-(3-Chloro-2-fluoro-6-(1H-tetrazol-1-yl)phenyl)-3-(5-(2-(trifluoromethyl)pyridin-4-yl)-1H-imidazol-2-yl)-2,3,8,8a-tetrahydroindolizin-5(1H)-one]
1.2 | 7 |  | COC(=O)Nc1ccc(-c2cnc([C@@H]3CCC4CC(c5c(-n6cnnn6)ccc(Cl)c5F)=CC(=O)N43)[nH]2)cn1 (stereo partly drawn) [Example 325, Methyl (5-(2-((3S)-7-(3-Chloro-2-fluoro-6-(1H-tetrazol-1-yl)phenyl)-5-oxo-1,2,3,5,8,8a-hexahydroindolizin-3-yl)-1H-imidazol-5-yl)pyridin-2-yl)carbamate]
 | 11.8 | 0.5 | CC(=O)Nc1ccccc1-c1cnc([C@@H]2CC[C@H]3CC(c4c(-n5cnnn5)ccc(Cl)c4F)=CC(=O)N32)[nH]1 (relative stereo) [Example 306, N-(2-(24(3S,8aS*)-7-(3-Chloro-2-fluoro-6-(1H-tetrazol-1-yl)phenyl)-5-oxo-1,2,3,5,8,8a-hexahydroindolizin-3-yl)-1H-imidazol-4-yl)phenyl)acetamide]
0.5 | 1.9 |  | COCCNc1nccc(-c2cnc([C@@H]3CCC4CC(c5c(-n6cnnn6)ccc(Cl)c5F)=CC(=O)N43)[nH]2)c1F (stereo partly drawn) [Example 161, (3S)-7-(3-chloro-2-fluoro-6-(1H-tetrazol-1-yl)phenyl)-3-(5-(3-fluoro-2-((2-methoxyethyl)amino)pyridin-4-yl)-1H-imidazol-2-yl)-2,3,8,8a-tetrahydroindolizin-5(1H)-one]
 | 11.4 | 31.3 | Nc1ccnn1-c1cc(-c2cnc([C@H]3CC[C@@H]4CC(c5c(-n6cnnn6)ccc(Cl)c5F)=CC(=O)N43)[nH]2)ccn1 (single isomer, unassigned) [Example 49, (3R*,8aR)-3-(5-(2-(5-amino-1H-pyrazol-1-yl)pyridin-4-yl)-1H-imidazol-2-yl)-7-(3-chloro-2-fluoro-6-(1H-tetrazol-1-yl)phenyl)-2,3,8,8a-tetrahydroindolizin-5(1H)-one]
